Measured values reported in PubChem BioAssay (NCI).
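Method: 48-hour compound exposure of cells in 96-well plates, five concentrations, linear interpolation of endpoints. GI50 marks 50% less growth. TGI marks complete inhibition of growth.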

What was measured:
Assay in all cases: NCI tumour cell line growth inhibition, 48 h
HOP-62 NSCLC = system: HOP-62 NSCLC
SK-MEL-5 melanoma = system: SK-MEL-5 melanoma
DMS 273 small cell lung = system: DMS 273 small cell lung
HOP-18 NSCLC = system: HOP-18 NSCLC
KM20L2 colon = system: KM20L2 colon
LXFL 529 NSCLC = system: LXFL 529 NSCLC
M19-MEL melanoma = system: M19-MEL melanoma
RXF-631 renal = system: RXF-631 renal
SNB-78 CNS = system: SNB-78 CNS
XF 498 CNS = system: XF 498 CNS
DLD-1 colon = system: DLD-1 colon
DMS 114 small cell lung = system: DMS 114 small cell lung
P388 leukemia = system: P388 leukemia
P388/ADR leukemia = system: P388/ADR leukemia
SN12K1 renal = system: SN12K1 renal

| SMILES | TGI (HOP-62 NSCLC) [µM] | TGI (SK-MEL-5 melanoma) [µM] | further results |
| --- | --- | --- | --- |
| CCn1c(=O)c2c3cc(O)ccc3oc2c2ccc(O)cc21 | > 100 | > 100 | – |
| O=C(O)c1ccc(NS(=O)(=O)Cc2ccccc2)cc1 | > 100 | > 100 | – |
| O=C1/C(=C/c2ccc(Br)s2)NC(=S)N1CN1CCOCC1 | > 100 | > 100 | – |
| COc1ccc(CNc2nc3ccc(C(F)(F)F)cc3nc2-c2ccccc2)cc1OC | > 100 | – | TGI (DMS 273 small cell lung): > 100 µM; TGI (HOP-18 NSCLC): > 100 µM; TGI (KM20L2 colon): > 100 µM; TGI (LXFL 529 NSCLC): > 100 µM; TGI (M19-MEL melanoma): > 100 µM; TGI (RXF-631 renal): > 100 µM; TGI (SNB-78 CNS): > 100 µM; TGI (XF 498 CNS): > 100 µM |
| C(=Nc1ccc(-c2nc3ccccc3s2)cc1)c1ccco1 | > 100 | > 100 | – |
| O=C1NC(=S)NC(=O)C1C(c1ccccc1[N+](=O)[O-])C1C(=O)NC(=S)NC1=O | > 100 | > 100 | – |
| Cc1cc(C)c2c(n1)S(=O)(=O)N(CCCN1CCN(c3cccc(C(F)(F)F)c3)CC1)/C(=C(\O)c1ccc(Cl)cc1)C2=O | 37.1 | 6.22 | – |
| CCOC(=O)C1C(=O)CC(O)(c2ccccc2)C(C(=O)OCC)C1c1ccc(OC)cc1 (centres undefined) | > 100 | > 100 | – |
| Cc1cccc(N(CCC#N)S(=O)(=O)c2ccccc2)c1 | > 100 | > 100 | – |
| Cc1ccc(C(=O)Nc2ccc(CP(=O)(O)O)cc2)cc1NC(=O)c1cccc(NC(=O)Nc2cccc(C(=O)Nc3cc(C(=O)Nc4ccc(CP(=O)(O)O)cc4)ccc3C)c2)c1 | > 100 | > 100 | – |
| CC(C)/C(Cl)=N\OC(=O)NNc1ccccc1 | > 100 | > 54 | – |
| CC(=O)OCC1OC(n2c(=S)[nH]c(-c3ccccc3)c(C#N)c2=O)C(OC(C)=O)C(OC(C)=O)C1OC(C)=O (centres undefined) | > 100 | > 100 | – |
| Cc1cccc(C[C@@]2(SCc3ccccc3)C(C)(C)[C@@H]3CC[C@@]2(C)C3)n1 | 60.2 | 29.4 | – |
| CN(C)c1ccc(/C(Br)=C2\OC(=O)c3ccccc32)cc1 | > 100 | > 100 | – |
| Cc1ccc(C2=Nc3c(c(C)nn3-c3ccccc3)N=C(C(=O)O)C2)cc1 | > 10 | > 10 | – |
| COc1cc([C@@H]2c3cc4c(cc3C[C@H]3COC(=O)[C@@H]32)OCO4)cc(OC)c1OC | 40.5 | > 7.93 | TGI (DLD-1 colon): > 50 µM; TGI (DMS 114 small cell lung): 0.0167 µM; TGI (DMS 273 small cell lung): > 4.13 µM; TGI (HOP-18 NSCLC): > 50 µM; GI50 (HOP-62 NSCLC): 5.77 nM; TGI (M19-MEL melanoma): > 50 µM; TGI (P388 leukemia): > 15.8 µM; TGI (P388/ADR leukemia): 502 nM; GI50 (SK-MEL-5 melanoma): 3.97 nM; TGI (SN12K1 renal): > 3.86 µM; TGI (SNB-78 CNS): > 50 µM; TGI (XF 498 CNS): 1.88 µM |
| N#Cc1c2c(c(Nc3ccc(F)cc3)n3c1nc1ccccc13)CCC2 | 11.2 | 8.52 | – |
| CCOC(=O)c1c(N)n(-c2ccccc2)c(=S)n(-c2ccccc2)c1=O | – | > 100 | – |

| SMILES | TGI (HOP-62 NSCLC) [µM] | TGI (SK-MEL-5 melanoma) [µM] | further results |
| --- | --- | --- | --- |
| c1ccc(N=c2snc(-c3ccccc3)s2)cc1 | > 100 | > 100 | TGI (DLD-1 colon): > 100 µM; TGI (DMS 114 small cell lung): > 100 µM; TGI (DMS 273 small cell lung): > 100 µM; TGI (HOP-18 NSCLC): > 100 µM; TGI (KM20L2 colon): > 100 µM; TGI (LXFL 529 NSCLC): > 100 µM; TGI (M19-MEL melanoma): > 100 µM; TGI (SNB-78 CNS): > 100 µM |
| COc1ccc(NC2Oc3cc4c(cc3C(c3cc(OC)c(OC)c(OC)c3)C2C)OCO4)cc1 (centres undefined) | 6.98 | 4.09 | – |
| O=c1nc2c(c(-c3cccc(Cl)c3)[nH]1)COC/C2=C\c1cccc(Cl)c1 | > 100 | > 100 | – |
| Cc1cc2cccc(Cl)c2nc1C(=O)c1ccccc1 | > 100 | > 100 | TGI (DLD-1 colon): > 100 µM; TGI (DMS 114 small cell lung): > 100 µM; TGI (DMS 273 small cell lung): > 100 µM; TGI (HOP-18 NSCLC): > 100 µM; TGI (KM20L2 colon): > 100 µM; TGI (LXFL 529 NSCLC): > 100 µM; TGI (M19-MEL melanoma): > 100 µM; TGI (RXF-631 renal): > 100 µM; TGI (SNB-78 CNS): > 100 µM; TGI (XF 498 CNS): > 100 µM |
| Cc1cc(O)cc(O)c1N=Nc1ccc([N+](=O)[O-])cc1 | > 100 | 38.4 | – |
| CN(O)C(=O)Cc1ccc(OCc2cccc(Cl)c2)cc1 | > 100 | > 100 | – |
| CCN(CCCN(CC)C(=O)N[C@@H](Cc1ccccc1)C(=O)NC)C(=O)N[C@@H](Cc1ccccc1)C(=O)NC | > 100 | > 100 | – |
| CC(=O)/C(=C/n1c(=S)sc2ccccc21)C(=O)Nc1ccccc1C | > 100 | > 100 | – |
| O=C1/C(=C/c2ccc([N+](=O)[O-])cc2)CNC/C1=C\c1ccc([N+](=O)[O-])cc1 | 15.9 | 25.3 | – |
| CSc1c(C(=O)Nc2ccc(C)cc2)c(N)[nH]c(=O)c1C#N | – | > 100 | – |
| CN1C(=O)CN(NC(=O)C2=C(O)c3ccc(Br)cc3S(=O)(=O)N2)C1=S | > 100 | > 100 | – |
| CC(=O)CC(=O)c1cc2c(=O)oc(C)cc2oc1=O | > 37.5 | > 37.5 | – |
| CN1CCN(C(=S)N(C)C(=O)c2ccc(Cl)cc2)CC1 | – | > 100 | – |
| CC1CC(C#N)=C2NCCCCN2C1=O (centres undefined) | > 100 | > 100 | – |
| CCC[C@H](C)[C@H]1NC(=O)[C@@H](NC(=O)[C@@H](CC(C)C)N(C)C(=O)C2CCCN2C(=O)[C@H](C)O)[C@@H](C)OC(=O)[C@H](CC(C)C)N(C)C(=O)[C@@H]2CCCN2C(=O)[C@H](CC(C)C)NC(=O)[C@@H](C)C(=O)[C@H](C(C)C)OC(=O)C[C@@H]1O (some centres undefined) | 0.00842 | 0.00381 | – |
| CCOC(=O)C1CC(O)C(=O)N1C (centres undefined) | > 100 | > 100 | – |
| CCOC(=O)c1cnc2[nH]ccn2c1=O | > 10 | > 10 | – |
